Assay results: ChEMBL document CHEMBL6103646 (J Med Chem, 2025)
Activity calls are given as the source filed them. The calls are words filed in the database; no cut-off is given here.

Tests used:
[1] = Stability of compound in human whole blood assessed as half-life at 1 uM measured upto 40 mins by LC-MS/MS analysis; assay type: ADME, tissue-based
[2] = target: Histone deacetylase 2 (Homo sapiens) (UniProt Q92769); assay: Inhibition of HDAC2 in human MM1.S cells assessed as increase in acetylated histone H3 level at 1 uM incubated for 6 hrs by Western blot analysis; assay type: cell-based
[3] = target: Histone deacetylase 1 (Homo sapiens) (UniProt Q13547); assay: Inhibition of HDAC1 in human MM1.S cells assessed as increase in acetylated histone H3 level at 1 uM incubated for 6 hrs by Western blot analysis; assay type: cell-based
[4] = target: Protein cereblon/Protein deacetylase HDAC6 (Mus musculus) (UniProt Q9Z2V5+Q8C7D2); assay: In vivo PROTAC activity at CRBN/HDAC6 in female C57BL/6J mouse assessed as reduction in HDAC6 protein level in liver at 5 mg/kg, iv measured after 6 hrs by Western blot analysis relative to control; assay type: functional, organism-based; design: scale not given: the % may be the effect or the level left
[5] = test system: MM1.S; assay: Antiproliferative activity against human MM1.S cells assessed as reduction in cell viability measured after 72 hrs by CellTiter-Glo assay; assay type: functional, cell-based
[6] = test system: N2a; assay: Antiproliferative activity against mouse Neuro2a cells assessed as effect on cell viability by CellTiter-Glo assay; assay type: functional, cell-based
[7] = target: T1, Histone deacetylase 11 (Homo sapiens, UniProt Q96DB2); assay: Inhibition of HDAC11 (unknown origin) using FAM-labeled peptide substrate by […] mobility shift assay
T1 sequence (Q96DB2 whole entry): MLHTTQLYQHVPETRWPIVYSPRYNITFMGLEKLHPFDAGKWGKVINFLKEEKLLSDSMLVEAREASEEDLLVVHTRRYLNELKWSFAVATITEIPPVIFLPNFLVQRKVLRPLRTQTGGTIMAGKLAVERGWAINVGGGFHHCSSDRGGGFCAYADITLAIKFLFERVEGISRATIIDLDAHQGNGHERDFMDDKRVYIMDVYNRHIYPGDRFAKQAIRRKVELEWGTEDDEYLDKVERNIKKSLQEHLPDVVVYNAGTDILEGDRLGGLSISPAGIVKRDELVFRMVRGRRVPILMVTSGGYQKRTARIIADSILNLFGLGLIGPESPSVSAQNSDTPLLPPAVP

[8] = target: T2, Histone deacetylase 8 (Homo sapiens, UniProt Q9BY41); assay: Inhibition of HDAC8 (unknown origin) using FAM-labeled peptide substrate by […] mobility shift assay
T2 sequence (Q9BY41 whole entry): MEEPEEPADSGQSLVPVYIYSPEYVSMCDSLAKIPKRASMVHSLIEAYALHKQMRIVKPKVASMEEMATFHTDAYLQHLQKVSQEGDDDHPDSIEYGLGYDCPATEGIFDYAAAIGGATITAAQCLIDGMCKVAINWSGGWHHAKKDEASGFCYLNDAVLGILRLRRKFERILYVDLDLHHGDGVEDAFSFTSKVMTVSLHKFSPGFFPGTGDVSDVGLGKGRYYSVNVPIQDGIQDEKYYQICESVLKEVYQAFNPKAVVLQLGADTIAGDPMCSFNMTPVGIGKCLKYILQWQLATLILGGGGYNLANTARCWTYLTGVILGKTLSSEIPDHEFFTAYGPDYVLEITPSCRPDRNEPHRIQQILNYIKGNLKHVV

[9] = Selectivity index, ratio of IC50 for inhibition of HDAC8 (unknown origin) to IC50 for inhibition of HDAC6 (unknown origin)
[10] = target: Protein cereblon/Protein deacetylase HDAC6 (Homo sapiens) (UniProt Q9UBN7+Q96SW2); assay: PROTAC activity at CRBN/HDAC6 in human MM1.S cells assessed as induction of HDAC6 degradation at 0.1 to 1 uM by Western blot analysis; assay type: cell-based; conditions: dose 0.1-1 µM
Sequence of Protein cereblon/Protein deacetylase HDAC6 (Homo sapiens) (Q96SW2 whole entry, looked up): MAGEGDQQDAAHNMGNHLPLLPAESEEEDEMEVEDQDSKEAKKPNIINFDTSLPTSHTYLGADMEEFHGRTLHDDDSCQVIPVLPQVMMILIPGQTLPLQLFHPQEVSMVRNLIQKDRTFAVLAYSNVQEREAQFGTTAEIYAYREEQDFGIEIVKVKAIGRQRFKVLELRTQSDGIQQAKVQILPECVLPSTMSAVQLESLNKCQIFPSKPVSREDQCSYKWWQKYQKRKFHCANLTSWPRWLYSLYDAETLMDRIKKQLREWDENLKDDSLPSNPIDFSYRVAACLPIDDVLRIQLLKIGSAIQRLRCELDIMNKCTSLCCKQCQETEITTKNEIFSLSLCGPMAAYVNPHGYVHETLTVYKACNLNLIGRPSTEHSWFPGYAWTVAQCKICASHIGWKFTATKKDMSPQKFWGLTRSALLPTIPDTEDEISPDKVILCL
Sequence of Protein cereblon/Protein deacetylase HDAC6 (Homo sapiens) (Q9UBN7 whole entry, looked up): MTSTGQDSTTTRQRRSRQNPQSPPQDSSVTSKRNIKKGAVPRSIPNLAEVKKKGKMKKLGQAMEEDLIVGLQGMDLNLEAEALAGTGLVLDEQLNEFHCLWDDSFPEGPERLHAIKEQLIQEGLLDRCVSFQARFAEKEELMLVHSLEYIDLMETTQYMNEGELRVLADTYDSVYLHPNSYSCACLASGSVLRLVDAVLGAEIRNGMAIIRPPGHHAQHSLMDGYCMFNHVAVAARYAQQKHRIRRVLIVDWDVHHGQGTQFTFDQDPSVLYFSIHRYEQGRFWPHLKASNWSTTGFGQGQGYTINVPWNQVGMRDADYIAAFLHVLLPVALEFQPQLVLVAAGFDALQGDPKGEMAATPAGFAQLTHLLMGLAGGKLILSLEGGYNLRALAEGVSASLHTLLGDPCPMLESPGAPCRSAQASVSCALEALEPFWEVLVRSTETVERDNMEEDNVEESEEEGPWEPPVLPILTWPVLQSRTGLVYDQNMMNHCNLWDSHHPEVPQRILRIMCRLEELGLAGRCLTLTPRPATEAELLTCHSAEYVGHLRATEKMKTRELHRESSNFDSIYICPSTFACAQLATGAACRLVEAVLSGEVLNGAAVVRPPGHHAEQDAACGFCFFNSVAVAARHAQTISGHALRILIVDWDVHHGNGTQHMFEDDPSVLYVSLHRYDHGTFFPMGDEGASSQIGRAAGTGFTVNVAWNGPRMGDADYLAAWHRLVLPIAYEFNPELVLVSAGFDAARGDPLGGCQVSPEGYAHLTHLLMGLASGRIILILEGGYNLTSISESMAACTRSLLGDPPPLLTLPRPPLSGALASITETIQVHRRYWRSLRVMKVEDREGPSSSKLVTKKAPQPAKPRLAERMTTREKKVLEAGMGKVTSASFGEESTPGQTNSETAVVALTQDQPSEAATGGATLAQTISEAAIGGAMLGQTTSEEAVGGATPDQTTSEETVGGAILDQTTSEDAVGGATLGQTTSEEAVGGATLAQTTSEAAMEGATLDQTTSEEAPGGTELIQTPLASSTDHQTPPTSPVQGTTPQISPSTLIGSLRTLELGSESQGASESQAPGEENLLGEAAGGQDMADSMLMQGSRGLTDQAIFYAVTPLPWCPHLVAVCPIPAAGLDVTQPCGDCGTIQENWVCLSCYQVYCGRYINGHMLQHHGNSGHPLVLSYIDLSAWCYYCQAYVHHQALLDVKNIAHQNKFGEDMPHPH

Sequence of Histone deacetylase 2 (Homo sapiens) (Q92769 whole entry): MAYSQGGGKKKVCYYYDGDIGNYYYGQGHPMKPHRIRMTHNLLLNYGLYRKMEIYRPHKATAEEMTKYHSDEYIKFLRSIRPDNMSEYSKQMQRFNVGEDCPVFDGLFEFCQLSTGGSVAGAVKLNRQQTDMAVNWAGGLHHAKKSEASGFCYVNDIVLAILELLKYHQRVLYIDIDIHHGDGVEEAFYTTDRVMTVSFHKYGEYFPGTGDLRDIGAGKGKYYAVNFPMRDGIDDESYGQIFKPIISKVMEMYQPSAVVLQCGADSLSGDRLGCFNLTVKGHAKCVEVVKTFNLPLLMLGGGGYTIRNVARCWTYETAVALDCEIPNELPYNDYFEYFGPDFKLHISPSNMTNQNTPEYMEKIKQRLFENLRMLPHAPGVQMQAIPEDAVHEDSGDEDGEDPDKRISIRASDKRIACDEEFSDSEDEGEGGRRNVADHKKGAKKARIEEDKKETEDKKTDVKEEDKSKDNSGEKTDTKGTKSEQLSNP
Sequence of Histone deacetylase 1 (Homo sapiens) (Q13547 whole entry): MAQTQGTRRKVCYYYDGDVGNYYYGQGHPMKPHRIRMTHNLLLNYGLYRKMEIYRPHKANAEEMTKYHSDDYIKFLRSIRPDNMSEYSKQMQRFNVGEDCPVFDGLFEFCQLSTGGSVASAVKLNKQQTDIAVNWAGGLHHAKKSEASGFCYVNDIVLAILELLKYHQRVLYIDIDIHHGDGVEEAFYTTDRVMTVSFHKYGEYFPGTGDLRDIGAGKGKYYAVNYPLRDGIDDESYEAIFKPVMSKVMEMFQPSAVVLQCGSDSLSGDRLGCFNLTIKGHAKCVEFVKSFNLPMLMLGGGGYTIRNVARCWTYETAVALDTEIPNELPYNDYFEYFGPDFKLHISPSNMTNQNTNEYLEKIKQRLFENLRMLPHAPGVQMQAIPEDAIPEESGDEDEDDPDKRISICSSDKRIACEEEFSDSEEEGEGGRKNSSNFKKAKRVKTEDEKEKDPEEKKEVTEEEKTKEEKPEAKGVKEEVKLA
Sequence of Protein cereblon/Protein deacetylase HDAC6 (Mus musculus) (Q8C7D2 whole entry, looked up): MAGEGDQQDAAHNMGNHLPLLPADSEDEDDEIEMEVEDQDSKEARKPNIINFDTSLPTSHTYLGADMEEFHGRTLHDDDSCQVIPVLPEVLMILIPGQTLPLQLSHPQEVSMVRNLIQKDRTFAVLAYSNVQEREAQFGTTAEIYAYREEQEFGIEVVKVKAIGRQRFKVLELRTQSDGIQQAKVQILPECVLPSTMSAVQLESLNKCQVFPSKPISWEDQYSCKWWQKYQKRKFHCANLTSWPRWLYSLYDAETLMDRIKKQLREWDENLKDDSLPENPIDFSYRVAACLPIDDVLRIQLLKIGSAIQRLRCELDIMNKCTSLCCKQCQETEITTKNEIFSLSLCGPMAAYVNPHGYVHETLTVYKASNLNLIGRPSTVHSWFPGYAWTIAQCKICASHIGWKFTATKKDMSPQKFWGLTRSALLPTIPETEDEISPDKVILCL
Sequence of Protein cereblon/Protein deacetylase HDAC6 (Mus musculus) (Q9Z2V5 whole entry, looked up): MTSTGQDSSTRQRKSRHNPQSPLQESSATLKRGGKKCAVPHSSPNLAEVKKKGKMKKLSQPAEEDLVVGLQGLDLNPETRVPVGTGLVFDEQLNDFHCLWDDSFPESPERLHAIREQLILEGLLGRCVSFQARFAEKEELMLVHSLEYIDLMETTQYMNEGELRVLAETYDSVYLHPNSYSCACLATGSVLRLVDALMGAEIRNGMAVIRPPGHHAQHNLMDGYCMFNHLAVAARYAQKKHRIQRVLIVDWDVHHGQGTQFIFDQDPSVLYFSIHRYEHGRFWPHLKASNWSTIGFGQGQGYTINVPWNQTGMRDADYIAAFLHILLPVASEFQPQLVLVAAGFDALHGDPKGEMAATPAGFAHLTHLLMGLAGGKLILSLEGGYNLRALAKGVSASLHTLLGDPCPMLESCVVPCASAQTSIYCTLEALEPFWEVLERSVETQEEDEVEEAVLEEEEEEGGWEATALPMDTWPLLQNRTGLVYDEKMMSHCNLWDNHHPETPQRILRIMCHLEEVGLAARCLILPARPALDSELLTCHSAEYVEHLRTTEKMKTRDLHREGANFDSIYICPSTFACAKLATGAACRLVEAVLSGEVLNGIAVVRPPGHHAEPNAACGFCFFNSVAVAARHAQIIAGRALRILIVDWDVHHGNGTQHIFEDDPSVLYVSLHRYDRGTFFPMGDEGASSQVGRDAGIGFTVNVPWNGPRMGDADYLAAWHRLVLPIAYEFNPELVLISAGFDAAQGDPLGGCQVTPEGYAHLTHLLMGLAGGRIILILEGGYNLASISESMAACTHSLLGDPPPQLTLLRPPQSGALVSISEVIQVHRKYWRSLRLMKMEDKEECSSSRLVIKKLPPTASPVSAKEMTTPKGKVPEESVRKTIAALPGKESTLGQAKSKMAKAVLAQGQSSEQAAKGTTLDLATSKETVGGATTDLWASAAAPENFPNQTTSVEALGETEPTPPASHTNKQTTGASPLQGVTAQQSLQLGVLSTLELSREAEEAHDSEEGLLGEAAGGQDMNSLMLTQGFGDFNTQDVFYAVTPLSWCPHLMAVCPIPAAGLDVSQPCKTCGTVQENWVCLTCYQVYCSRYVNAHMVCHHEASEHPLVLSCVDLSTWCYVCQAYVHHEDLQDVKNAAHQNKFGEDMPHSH

half-life at 1 µM [1] [h]	inhibition [2]	inhibition [3]	SMILES	also measured
1.29	inactive	inactive	O=C1CCC(N2C(=O)c3cccc(NCCN(Cc4ccc(C(=O)NO)cc4)Cc4cccnc4)c3C2=O)C(=O)N1 (stereo unspecified)	
0.704	inactive	inactive	O=C1CCC(N2C(=O)c3cccc(NCCCCCCn4cc(CN(Cc5ccc(C(=O)NO)cc5)Cc5cccnc5)nn4)c3C2=O)C(=O)N1 (stereo unspecified)	
1.36	inactive	inactive	O=C1CCC(N2C(=O)c3cccc(NCCOCCN(Cc4ccc(C(=O)NO)cc4)Cc4cccnc4)c3C2=O)C(=O)N1 (stereo unspecified)	
0.738	inactive	inactive	O=C1CCC(N2C(=O)c3cccc(NCCCn4cc(CN(Cc5ccc(C(=O)NO)cc5)Cc5cccnc5)nn4)c3C2=O)C(=O)N1 (stereo unspecified)	
1.01	inactive	inactive	O=C1CCC(N2C(=O)c3cccc(NCCOCCn4cc(CCCCN(Cc5ccc(C(=O)NO)cc5)Cc5cccnc5)nn4)c3C2=O)C(=O)N1 (stereo unspecified)	
0.864	inactive	inactive	O=C1CCC(N2C(=O)c3cccc(NCCOCCOCCn4cc(CCCCN(Cc5ccc(C(=O)NO)cc5)Cc5cccnc5)nn4)c3C2=O)C(=O)N1 (stereo unspecified)	
1.33	inactive	inactive	O=C1CCC(N2C(=O)c3cccc(NCCOCCn4cc(CN(Cc5ccc(C(=O)NO)cc5)Cc5cccnc5)nn4)c3C2=O)C(=O)N1 (stereo unspecified)	Activity [4]: 60%; Activity [5]: Active; Minimal Effect Observed Compared To To-317,Ricolinostat An D Citarinostat; Activity [6]: inactive
0.762	inactive	inactive	O=C1CCC(N2C(=O)c3cccc(NCCCCCCn4cc(CCCCN(Cc5ccc(C(=O)NO)cc5)Cc5cccnc5)nn4)c3C2=O)C(=O)N1 (stereo unspecified)	
0.62	inactive	inactive	O=C1CCC(N2C(=O)c3cccc(NCCOCCOCCn4cc(CN(Cc5ccc(C(=O)NO)cc5)Cc5cccnc5)nn4)c3C2=O)C(=O)N1 (stereo unspecified)	IC50 [7]: > 10000 nM
			O=C(NO)c1ccc(CN(Cc2cccnc2)S(=O)(=O)c2cc(F)c(F)c(F)c2F)cc1	IC50 [8]: 31.6 nM; IC50 [7]: > 1000 nM; Ratio IC50 [9]: 158
			CN1C(=O)CCC(N2C(=O)c3cccc(NCCOCCOCCn4cc(CN(Cc5ccc(C(=O)NO)cc5)Cc5cccnc5)nn4)c3C2=O)C1=O (stereo unspecified)	Activity [10]: inactive
1.05	inactive	inactive	O=C1CCC(N2C(=O)c3cccc(NCCCn4cc(CCCCN(Cc5ccc(C(=O)NO)cc5)Cc5cccnc5)nn4)c3C2=O)C(=O)N1 (stereo unspecified)	Activity [5]: inactive; Activity [6]: inactive
1.06	inactive	inactive	O=C1CCC(N2C(=O)c3cccc(NCCOCCOCCN(Cc4ccc(C(=O)NO)cc4)Cc4cccnc4)c3C2=O)C(=O)N1 (stereo unspecified)	
1.45	inactive	inactive	O=C1CCC(N2C(=O)c3cccc(NCCCCN(Cc4ccc(C(=O)NO)cc4)Cc4cccnc4)c3C2=O)C(=O)N1 (stereo unspecified)	
